Data taken from patent US20170183637A1, “SPLIT RECOMBINANT LUCIFERASE, AND ANALYSIS METHOD USING THEREOF” (OLYMPUS CORPORATION, priority 2014, published 2017).

What was measured:
HEK293 cells [1] = assay: Luminescence measurement of changes in intracellular calcium level in HEK293 cells upon ATP stimulation (Experiment 9); assay type: cell-based; conditions: ATP 200 μM, luciferin 2 mM, luminometer, FIG. 13
Method: HEK293 cells (1×10^6 cells) were collected by centrifugation and luminescent calcium indicator expression vectors were transferred into the cells by electroporation using NEPA21. The transfected HEK293 cells were seeded into a 24-well multiplate at a concentration of 1×10^5 cells/well and cultured overnight in a 5% CO2 incubator.
After rinsing the cells with CO2-independent culture medium twice, 200 μL of CO2-independent culture medium containing D-luciferin (final conc.=2 mM) was added and the plate was allowed to stand for 15 min.
The plate was placed in a luminometer (Luminescencer-JNR II, ATTO), and luminescence intensity for pre- and post-ATP (200 μM) stimulation was measured over time.
Luminescent calcium indicators were transferred into HEK293 cells and the cells were cultured overnight. The cells were rinsed with CO2-independent culture medium, luciferin was added to the CO2-independent culture medium to a final luciferin concentration of 2 mM, and the culture was allowed to stand for 15 min, followed by measurement of luminescence intensity using a luminometer.

HEK293 cells [2] = assay: Luminescence-based calcium imaging in HEK293 cells upon ATP stimulation (Experiment 10); assay type: cell-based; conditions: FIG. 14
Method: HEK293 cells were acquired from ATCC and cultured in a 5% CO2 incubator in Earle's MEM culture medium (GIBCO) supplemented with 10% Fetal Bovine Serum and 1× Nonessential amino acids.
The cultured HEK293 cells were seeded onto 35 mm-diameter glass bottom dishes at a density of 2×10^5 cells/dish and cultured overnight in a 5% CO2 incubator. Luminescent calcium indicator expression plasmids were transferred into the HEK293 cells by electroporation using NEPA21 and cultured overnight in a 5% CO2 incubator.
2 mM luciferin (Wako Pure Chemical industries, Ltd.) was added to the culture medium and the culture was allowed to stand for 1 h. The culture dish was then loaded onto a luminescence microscope (LV-200, Olympus) and time-lapse image capturing was performed to acquire luminescence images at an interval of 10 sec. Luminescence observation conditions were as follows: magnification of objective lens=40×, exposure time=5 sec, and binning=1×1. An EM-CCD camera (iXon, Andor) was used as a CCD camera, and luminescence images were transferred to a personal computer configured as an image analyzer.
Changes in luminescence intensity of luminescent calcium indicators in response to changes in intracellular calcium ion concentration upon addition of ATP in culture medium were imaged. […] The luminescence images were transferred to the PC every 10 sec. […]

[3] = system: 5HT2A receptor-expressing HEK293 cells; assay: High-speed luminescence imaging of changes in calcium ion concentrations upon 5HT stimulation (Experiment 11); assay type: cell-based, human; conditions: 5HT 10 μM; cpSfRE55-CaM in 5HT2A receptor-expressing HEK293 cells; images every 500 milliseconds; FIG. 15
Method: The cells cultured in Procedure 1 were seeded onto 35 mm-diameter glass bottom dishes at a density of 2×10^5 cells/dish and cultured overnight in a 5% CO2 incubator. The human 5HT2A receptor expression plasmid pcDNA/5HT2AR and luminescent calcium indicator expression plasmid were transferred into the cells by electroporation using NEPA21 and the cells were cultured overnight in a 5% CO2 incubator.
2 mM luciferin (Promega) was added to the culture medium of the culture obtained in Procedure 2 and the culture was allowed to stand for 1 h. The culture dish was loaded onto a luminescence microscope (LV-200, Olympus) and time-lapse image capturing was performed to acquire luminescence images at an interval of 500 milliseconds. Luminescence observation conditions were as follows: magnification of objective lens:=40×, exposure time=200 milliseconds, and binning=2×2. Using an EM-CCD camera (iXon, Andor), luminescence images were taken and transferred to a personal computer. […]
Regions of interest (ROIs) were designated for each luminescence image captured in Procedure 3 and for each luminescence image captured in Procedure 4. […] The luminescence images were analyzed using MetaMorph software (Universal imaging). […]

E. coli (JM109 (DE3)) = assay: Luminescence activity of permutated and heterologous permutated firefly luciferase expressed in E. coli (Experiments 1 and 2); assay type: cell-based; conditions: Bright-Glo, 5 min room temperature, counts per 10 sec, FIG. 3
Method: The pRSET vector containing the permutated firefly luciferase gene was transformed into JM109(DE3) strain of E. coli and cultured overnight at 37° C. To 50 μL of culture was added 50 μL of Bright-Glo (Promega) and the culture was allowed to stand for 5 min at room temperature. Luminescence level for 10 sec was then measured using a luminometer (Luminescencer-JNR II, ATTO).
The prepared expression vector was transformed into E. coli (JM109 (DE3)) and cultured overnight in LB medium. To 50 μL of culture was added an equal volume of Bright-Glo and the culture was allowed to stand for 5 min at room temperature. Luminescence level of the reaction solution was reported as counts per 10 sec measured with the luminometer. As a control, permutated luciferase (GL4) derived from the North American firefly (Pholinus pyralis) luciferase was used. In FIG. 3, luminescence activities of GL4-derived and OKI-derived permutated luciferases are shown in terms of relative values with the activity of GL4 being 1. The vertical axis in FIG. 3 represents relative luminescence level.
The pRSET vector containing the heterologous permutated luciferase gene was transformed into JM109(DE3) strain of E. coli and cultured overnight at 37° C. in LB medium. […] Luminescence level for 10 sec was then measured using a luminometer (Luminescencer-JNR II, ATTO). […]

Nc1ncnc2c1ncn2[C@@H]1O[C@H](COP(=O)(O)OP(=O)(O)OP(=O)(O)O)[C@@H](O)[C@H]1O [ATP, adenosine tri phosphate]
change in luminescence intensity of luminescent calcium indicator upon ATP stimulation (HEK293 cells [1]): reductions in luminescence intensity | time course of luminescence intensity change caused by ATP stimulation (HEK293 cells [2]): transient | luminescence intensity of indicator-expressing cells after ATP stimulation (single-cell imaging) (HEK293 cells [2]; luciferin 2 mM, exposure 5 sec): decreased levels of luminescence intensity

NCCc1c[nH]c2ccc(O)cc12 [5HT, Serotonin]
luminescence intensity response of indicator-expressing cells to 5HT stimulation [3]: cells that exhibited oscillation, as well as cells that exhibited a transient reduction in luminescence intensity

B1: OKI359: C-terminal fragment, residues 359 to 562 of OKI-derived luciferase; names the permutated luciferase made with OKI-N (protein)
chain: KPGACGKVAPFFSAKIVDLDTSKTLGVNQRGELCLKGPMIMKGYVNNPEATNALIDKDGWLHSGDLAYYDKDGHFFIVDRLKSLIKYQGYQVPPAELESILLQHPFIFDAGVAGIPDADAGELPAAVVVLEEGKTMTEQEVMDYVAGQVTASKRLRGGVKFVDEVPKGLTGKIDSRKIREMLTMGKKSKL
luminescence activity (relative luminescence level, GL4 being 1) (E. coli (JM109 (DE3))): high levels of luminescence activity
